The values that follow come from ChEMBL document CHEMBL1201862, “PubChem BioAssay data set” (2004).

Test systems include ACHN; COLO 205; EKVX; HCT-116; HCT-15; M14; MOLT-4; NCI-H460; OVCAR-4; OVCAR-5; SK-OV-3; SN12C; SNB-19; SW-620; UO-31; DU-145; MDA-MB-231; PC-3.
Holding throughout (assay): DTP human tumour cell line panel, 48 h

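96-well plates; 48 h exposure; 5 concentrations. Endpoints by linear interpolation between flanking doses. Not reached: highest tested concentration assigned. GI50 is the concentration that inhibits growth by half.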 Calls of active or inactive are those of the source. No stated cut-off is given here; in the data, active = GI50 up to about 1.1 µM and inactive = higher.

On to `CC(=O)C1C(=O)C(=O)N(c2ccccc2N2C(=O)C(=O)C(C(C)=O)C2=O)C1=O` (stereo not drawn), for which the GI50 is > 100 µM (inactive) in the assay with ACHN; > 100 µM (inactive) in the assay with COLO 205; 39.9 µM (inactive) in the assay with EKVX; > 100 µM (inactive) in the assay with HCT-116; > 100 µM in the assay with HCT-15; > 100 µM (inactive) in the assay with M14. For the same compound, the GI50 in the assay on MOLT-4, in the assay on NCI-H460, in the assay with OVCAR-4, with OVCAR-5, in the assay on SK-OV-3 and in the assay with SN12C was > 100 µM (inactive) each time. In addition, the GI50 in the assay with SNB-19, in the assay on SW-620 and with UO-31 was > 100 µM (inactive) throughout.
In the case of `Cc1cccc(C)c1NC(=O)C(=O)CC(=O)CO`, the GI50 in the assay with ACHN is > 100 µM (inactive); in the assay with COLO 205 it was > 100 µM (inactive); in the assay with EKVX, > 100 µM (inactive); in the assay on HCT-116, > 100 µM (inactive); with HCT-15, > 100 µM; with M14, > 100 µM (inactive). Also, the GI50 in the assay on MOLT-4, with NCI-H460, in the assay with OVCAR-4, with OVCAR-5, in the assay on SK-OV-3 and with SN12C was > 100 µM (inactive) in each case. Besides, the GI50 with SNB-19, in the assay on SW-620 and in the assay on UO-31 was > 100 µM (inactive) throughout.
Regarding `C/C=C/C/C=C/CCC(=O)C1OC1C(N)=O` (stereo not drawn), the GI50 in the assay with ACHN is 15.2 µM (inactive); in the assay with COLO 205, 18.9 µM (inactive); in the assay with DU-145 it was 17.5 µM (inactive); with EKVX it was 18.9 µM (inactive); in the assay with HCT-116, 15 µM (inactive); in the assay on HCT-15, 12.6 µM. In addition, the GI50 in the assay with M14 was 15.8 µM (inactive); in the assay on MDA-MB-231, 16.5 µM (inactive); in the assay with MOLT-4 it was 13.2 µM (inactive); with NCI-H460, 12.8 µM (inactive); with OVCAR-4, 11.6 µM (inactive); in the assay with OVCAR-5 it was 18.8 µM (inactive). Moreover, the GI50 with PC-3 is 15.4 µM (inactive); in the assay with SK-OV-3, 35.1 µM (inactive); in the assay with SN12C, 19 µM (inactive); in the assay on SNB-19, 18.2 µM (inactive); with SW-620, 19.8 µM (inactive); with UO-31, 11.8 µM (inactive).
Turning to `Cc1ccc(NC(=O)C(=O)C(C#N)c2nc(-c3ccc(-c4ccccc4)cc3)cs2)c(C)c1` (stereo not drawn), the GI50 with ACHN was > 100 µM (inactive); with COLO 205 it was > 100 µM (inactive); in the assay on EKVX, > 100 µM (inactive); in the assay on HCT-116, > 100 µM (inactive); in the assay with HCT-15, > 100 µM; in the assay on M14, > 100 µM (inactive). Besides, the GI50 in the assay on MOLT-4, in the assay with NCI-H460, with OVCAR-4, with OVCAR-5, in the assay with SK-OV-3 and in the assay on SN12C was > 100 µM (inactive) throughout. Besides, the values for the GI50 in the assay on SNB-19, in the assay with SW-620 and in the assay on UO-31 were > 100 µM (inactive), 17.4 µM (inactive) and > 100 µM (inactive), respectively.
In the case of `Cc1ccc(NC(=O)CC(=O)N2N=C(N(CCC#N)c3cccc(C)c3)CC2c2ccccc2)cc1` (stereo not drawn), the GI50 with ACHN is > 100 µM (inactive); in the assay with COLO 205, > 100 µM (inactive); in the assay on EKVX, 5.97 µM (inactive); in the assay with HCT-116 it was > 100 µM (inactive); in the assay on HCT-15 it was > 100 µM; in the assay with M14, > 100 µM (inactive). Further, the GI50 in the assay with MOLT-4, in the assay on NCI-H460, in the assay on OVCAR-4, with OVCAR-5, in the assay with SK-OV-3 and in the assay on SN12C was > 100 µM (inactive) in each case. The GI50 in the assay with SNB-19, in the assay on SW-620 and in the assay on UO-31 was > 100 µM (inactive) in each case.

One may read the GI50 as the concentration at which growth is held to half of that of the control.
